The source of these data is patent US9265253B2, “Use of macrocyclic picolinamides as fungicides” (DOW AGROSCIENCES LLC, priority 2013, dated 2016).

SMILES strings stand for the structures. Like-named read-outs stand apart in the source and are kept apart here.

Data set [1] concerns Puccinia triticina; Synonym: Puccinia recondite f. Sp. Tritici. Briefly: Wheat Brown Rust (PUCCRT) disease control. The following applies: Puccinia triticina, topical; for pest or weed control at 100 ppm: rate 100 ppm; for pest or weed control at 121.5 g/ha: rate 121.5 g/H. The class given is in vivo. In short, it runs like this:
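Brown rust on first-leaf Yuma wheat: spore inoculation before or after spray application (acetone/Triton X-100 solution, or EC with Trycol in track spray), overnight 100% RH at 22 °C, disease developed at 24 °C. Severity scored 0–100% and converted to percent control against untreated.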

For data set [2], the system named is Phakopsora pachyrhizi. Put plainly: Asian Soybean Rust (PHAKPA) disease control. The format is in vivo. The settings on record: Phakopsora pachyrhizi, topical. Here is the method:
Technical grades of materials were dissolved in acetone, which were then mixed with nine volumes of water containing 0.011% Tween 20. The fungicide solutions were applied onto soybean seedlings using an automated booth sprayer to run-off. All sprayed plants were allowed to air dry prior to further handling.
Soybean plants (variety Williams 82) were grown in soil-less Metro mix, with one plant per pot. Two weeks old seedlings were used for testing. Plants were inoculated either 3 days prior to or 1 day after fungicide treatments. Plants were incubated for 24 h in a dark dew room at 22° C. and 100% RH then transferred to a growth room at 23° C. for disease to develop. Disease severity was assessed on the sprayed leaves.

The test system of data set [3] is Mycosphaerella graminicola; Anamorph: Septoria tritici. Put plainly: Leaf Blotch of Wheat (SEPTTR) disease control. The format is in vivo. The following applies: Zymoseptoria tritici; for pest or weed control at 100 ppm: rate 100 ppm; for pest or weed control at 121.5 g/ha: rate 121.5 g/H. In short, it runs like this: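 Preventive or curative tests: first-leaf Yuma wheat, sprayed to run-off, inoculated with S. tritici, dew chamber at 100% humidity, then greenhouse at 20° C. Severity on the first leaf is scored on a 0–100% scale and expressed as % control against untreated plants.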

The mark [4] stands for this setting: 24 h, 1 Day Protectant, read-out: PUCCRT 1 DP disease control.
The mark [5] stands for this setting: 72 h, 3 Day Curative, read-out: PUCCRT 3 DC disease control.
Setting [6] is: 24 h, 1 Day Protectant, read-out: Disease Control PHAKPA 1DP.
[7] abbreviates: 72 h, 3 Day Curative, read-out: Disease Control PHAKPA 3DC.
Setting [8] is: 24 h, 1 Day Protectant, read-out: SEPTTR 1 DP disease control.
Where [9] appears, read: 72 h, 3 Day Curative, read-out: SEPTTR 3 DC disease control.

On to `C=CCO[C@@H]1[C@@H](Cc2ccc(F)cc2)CCC[C@H](NC(=O)c2nccc(OC)c2OCOC(=O)COCC)C(=O)O[C@H]1C` [Compound F166], for which the pest or weed control at 100 ppm in data set [1] (setting [4]), in data set [1] (setting [5]), in data set [3] (setting [8]) and in data set [3] (setting [9]) was 80 to 100% each time. In addition, the pest or weed control at 121.5 g/ha in data set [1] (setting [4]), in data set [1] (setting [5]), in data set [3] (setting [8]) and in data set [3] (setting [9]) was 80 to 100% in each case. In addition, the pest or weed control at 25 ppm is 80 to 100% in data set [2] (setting [6]) and 0 to 80% in data set [2] (setting [7]).

Take `COCC[C@H]1CCC[C@H](NC(=O)c2nccc(OC)c2OCOC(C)=O)C(=O)O[C@@H](C)[C@@H]1OCC(C)C` [Compound F132]: the pest or weed control at 100 ppm in data set [1] (setting [4]), in data set [1] (setting [5]), in data set [3] (setting [8]) and in data set [3] (setting [9]) was 80 to 100% each time. Further, the pest or weed control at 121.5 g/ha in data set [1] (setting [4]), in data set [1] (setting [5]), in data set [3] (setting [8]) and in data set [3] (setting [9]) was 80 to 100% throughout. The pest or weed control at 25 ppm in data set [2] (setting [6]) and in data set [2] (setting [7]) was 80 to 100% in each case.

With `COc1ccnc(C(=O)N[C@H]2CCC[C@H](C)[C@@H](Oc3ccccc3)[C@H](C)OC2=O)c1OC(C)=O` [Compound F76], the pest or weed control at 121.5 g/ha in data set [1] (setting [4]), in data set [1] (setting [5]), in data set [3] (setting [8]) and in data set [3] (setting [9]) was 80 to 100% throughout. Besides, the pest or weed control at 25 ppm in data set [2] (setting [6]) and in data set [2] (setting [7]) was 80 to 100% in each case.

Take `C[C@@H]1OC(=O)[C@@H](N)CCC[C@H](Cc2ccc(F)cc2F)[C@H]1OCc1ccccc1.Cl`: the melting point (in general, the temperature of the solid-liquid transition) was in the range of 233 to 237 °C.

As to `Cc1ccc(C[C@H]2CCC[C@H](N)C(=O)O[C@@H](C)[C@@H]2Oc2ccccc2)cc1.Cl`, the melting point is 200 to 210 °C (dec.).

In the case of `COc1ccnc(C(=O)N[C@H]2CCC[C@H](C)[C@@H](Oc3ccccc3)[C@H](C)OC2=O)c1OCOC(=O)C(C)C` [Compound F155], the pest or weed control at 100 ppm in data set [1] (setting [4]), in data set [1] (setting [5]), in data set [3] (setting [8]) and in data set [3] (setting [9]) was 80 to 100% each time. In addition, the pest or weed control at 121.5 g/ha in data set [1] (setting [4]), in data set [1] (setting [5]), in data set [3] (setting [8]) and in data set [3] (setting [9]) was 80 to 100% in each case. The pest or weed control at 25 ppm in data set [2] (setting [6]) and in data set [2] (setting [7]) was 80 to 100% each time.

Consider `COc1ccnc(C(=O)N[C@H]2CCC[C@H](CCC(C)C)[C@@H](OCCCC(F)(F)F)[C@H](C)OC2=O)c1OCOC(C)=O` [Compound F93], for which the pest or weed control at 100 ppm in data set [1] (setting [4]), in data set [1] (setting [5]), in data set [3] (setting [8]) and in data set [3] (setting [9]) was 80 to 100% in each case. Further, the pest or weed control at 121.5 g/ha in data set [1] (setting [4]) lay within 80 to 100%; in data set [1] (setting [5]), 0 to 80%; in data set [3] (setting [8]), 80 to 100%; in data set [3] (setting [9]), 80 to 100%. Further, the values for the pest or weed control at 25 ppm in data set [2] (setting [6]) and in data set [2] (setting [7]) were 80 to 100% and 0 to 80%, respectively.

As to `COc1ccnc(C(=O)N[C@H]2CCC[C@H](CC3CCCC3)[C@@H](OC(=O)C(C)C)[C@H](C)OC2=O)c1OCOC(C)=O` [Compound F121], the pest or weed control at 100 ppm in data set [1] (setting [4]), in data set [1] (setting [5]), in data set [3] (setting [8]) and in data set [3] (setting [9]) was 80 to 100% in each case. The pest or weed control at 121.5 g/ha in data set [1] (setting [4]), in data set [1] (setting [5]), in data set [3] (setting [8]) and in data set [3] (setting [9]) was 80 to 100% in each case. Also, the pest or weed control at 25 ppm in data set [2] (setting [6]) is 80 to 100%; in data set [2] (setting [7]), 0 to 80%.

With `COc1ccnc(C(=O)N[C@H]2CCC[C@H](CCC(C)C)[C@@H](OCC3CC3)[C@H](C)OC2=O)c1OCOC(C)=O` [Compound F91], the pest or weed control at 100 ppm in data set [1] (setting [4]), in data set [1] (setting [5]), in data set [3] (setting [8]) and in data set [3] (setting [9]) was 80 to 100% throughout. Further, the pest or weed control at 121.5 g/ha in data set [1] (setting [4]), in data set [1] (setting [5]), in data set [3] (setting [8]) and in data set [3] (setting [9]) was 80 to 100% in each case. Besides, the pest or weed control at 25 ppm in data set [2] (setting [6]) and in data set [2] (setting [7]) was 80 to 100% each time.

As for `COc1ccnc(C(=O)N[C@H]2CCC[C@H](CCC(C)C)[C@@H](OCC3CC3)[C@H](C)OC2=O)c1OCOC(=O)C(C)C` [Compound F149], the pest or weed control at 100 ppm in data set [1] (setting [4]), in data set [1] (setting [5]), in data set [3] (setting [8]) and in data set [3] (setting [9]) was 80 to 100% in each case. The pest or weed control at 121.5 g/ha in data set [1] (setting [4]), in data set [1] (setting [5]), in data set [3] (setting [8]) and in data set [3] (setting [9]) was 80 to 100% each time. In addition, the pest or weed control at 25 ppm in data set [2] (setting [6]) is 80 to 100%; in data set [2] (setting [7]) it was 0 to 80%.

For the compound `CCOCC(=O)OCOc1c(OC)ccnc1C(=O)N[C@H]1CCC[C@H](CCC(C)C)[C@@H](OCC2CC2)[C@H](C)OC1=O` [Compound F160], the pest or weed control at 100 ppm in data set [1] (setting [4]), in data set [1] (setting [5]), in data set [3] (setting [8]) and in data set [3] (setting [9]) was 80 to 100% throughout. Also, the pest or weed control at 121.5 g/ha in data set [1] (setting [4]), in data set [1] (setting [5]), in data set [3] (setting [8]) and in data set [3] (setting [9]) was 80 to 100% throughout. The pest or weed control at 25 ppm in data set [2] (setting [6]) and in data set [2] (setting [7]) was 80 to 100% throughout.

In the case of `COc1ccnc(C(=O)N[C@H]2CCC[C@H](CCC(C)C)[C@@H](OCC3CC3)[C@H](C)OC2=O)c1OC(C)=O` [Compound F63], the pest or weed control at 100 ppm in data set [1] (setting [4]), in data set [1] (setting [5]), in data set [3] (setting [8]) and in data set [3] (setting [9]) was 80 to 100% throughout. In addition, the pest or weed control at 121.5 g/ha in data set [1] (setting [4]), in data set [1] (setting [5]), in data set [3] (setting [8]) and in data set [3] (setting [9]) was 80 to 100% throughout. For the same compound, the pest or weed control at 25 ppm in data set [2] (setting [6]) and in data set [2] (setting [7]) was 80 to 100% throughout.

As to `COc1ccnc(C(=O)N[C@H]2CCC[C@H](C)[C@@H](Oc3ccccc3)[C@H](C)OC2=O)c1OCOC(C)=O` [Compound F124], the pest or weed control at 100 ppm in data set [1] (setting [4]), in data set [1] (setting [5]), in data set [3] (setting [8]) and in data set [3] (setting [9]) was 80 to 100% each time. Besides, the pest or weed control at 121.5 g/ha in data set [1] (setting [4]), in data set [1] (setting [5]), in data set [3] (setting [8]) and in data set [3] (setting [9]) was 80 to 100% in each case. Moreover, the pest or weed control at 25 ppm in data set [2] (setting [6]) and in data set [2] (setting [7]) was 80 to 100% each time.

With `CCOCC(=O)OCOc1c(OC)ccnc1C(=O)N[C@H]1CCC[C@H](CC)[C@@H](Oc2ccccc2)[C@H](C)OC1=O` [Compound F189], the pest or weed control at 100 ppm in data set [1] (setting [4]), in data set [1] (setting [5]), in data set [3] (setting [8]) and in data set [3] (setting [9]) was 80 to 100% each time. Moreover, the pest or weed control at 121.5 g/ha in data set [1] (setting [4]), in data set [1] (setting [5]), in data set [3] (setting [8]) and in data set [3] (setting [9]) was 80 to 100% throughout. The pest or weed control at 25 ppm in data set [2] (setting [6]) and in data set [2] (setting [7]) was 80 to 100% in each case.

On to `CCOCC(=O)OCOc1c(OC)ccnc1C(=O)N[C@H]1CCC[C@H](CCOC)[C@@H](OCC(C)C)[C@H](C)OC1=O` [Compound F187], for which the pest or weed control at 100 ppm in data set [1] (setting [4]), in data set [1] (setting [5]), in data set [3] (setting [8]) and in data set [3] (setting [9]) was 80 to 100% each time. Moreover, the pest or weed control at 121.5 g/ha in data set [1] (setting [4]), in data set [1] (setting [5]), in data set [3] (setting [8]) and in data set [3] (setting [9]) was 80 to 100% in each case. Moreover, the pest or weed control at 25 ppm in data set [2] (setting [6]) and in data set [2] (setting [7]) was 80 to 100% each time.
